Measured values reported in ChEMBL document CHEMBL1151614, “Microbial transformations of natural antitumor agents, 25. Conversions of 3-ketoaphidicolin” (1984).
Values after ≈ are worked out from the molar mass of the structure shown.

Test system: P388
Experiment: In vivo antitumor activity against mouse P388 cells
Type: functional

Q: `C[C@@]1(CO)[C@H](O)CC[C@@]2(C)[C@H]1[C@H](O)C[C@H]1C[C@@H]3C[C@@]12CC[C@]3(O)CO` was tested. Which ED50 did it give?
A: 18 µg/mL (≈ 50.8 µM)

Q: For `C[C@@]1(CO)[C@@H](O)CC[C@@]2(C)[C@H]1CC[C@H]1C[C@@H]3C[C@@]12CC[C@]3(O)CO`, which ED50 is on record?
A: 13 µg/mL (≈ 38.4 µM)

Q: `C[C@@H]1C(=O)CC[C@@]2(C)[C@H]1CC[C@H]1C[C@@H]3C[C@@]12CC[C@]3(O)CO` was tested. Which ED50 did it give?
A: 12 µg/mL (≈ 39.2 µM)

Q: `C[C@@]1(C(=O)O)[C@H](O)CC[C@@]2(C)[C@H]1CC[C@H]1C[C@@H]3C[C@@]12CC[C@]3(O)CO` was tested. Which ED50 did it give?
A: 2.2 µg/mL (≈ 6.24 µM)

Q: Which ED50 does the source give for `C[C@]12CCC(=O)[C@@](C)(CO)[C@@H]1CC[C@H]1C[C@@H]3C[C@@]12CC[C@]3(O)CO` here?
A: 2.4 µg/mL (≈ 7.13 µM)

Q: How did the ED50 turn out when `C[C@]12CCC(=O)[C@@](C)(CO)[C@@H]1[C@H](O)C[C@H]1C[C@@H]3C[C@@]12CC[C@]3(O)CO` was run?
A: 100 µg/mL (≈ 284 µM)

Q: How did the ED50 turn out when `C[C@@]1(CO)[C@H](O)CC[C@@]2(C)[C@H]1CC[C@H]1C[C@@H]3C[C@@]12CC[C@]3(O)CO` [APHIDICOLIN] was run?
A: 0.13 µg/mL (≈ 0.384 µM)
